Results: article PMC2633461, “Porcine sclera as a model of human sclera for in vitro transport experiments: histology, SEM, and comparative permeability” (Molecular Vision, 2009)
Read-outs that look alike come from different tables or passages of the source.

Tests used:
[1] = cited from earlier work
Text: Regardless of the nature of this interaction, we have estimated that the affinity of insulin for the sclera was the same for porcine and human tissues. […] These values (not statistically different between them, p=0.176) indicate a similar behavior of the two tissues toward insulin and also confirm that insulin has an effective affinity for the sclera. In fact, even if the absolute value of the par ...

[2] = Experimental: Human corneal-scleral rims, which were discarded following harvesting of the corneal button (Regional Cornea Bank, Bologna, Italy), were frozen in liquid nitrogen and used within 15 days of explantation.
(§1) Permeation experiments were performed in Franz-type diffusion cells with an area of 0.2 cm^2 for human sclera and 0.6 cm^2 for porcine sclera.
(§2) To reduce edge damage, a thin layer of silicone lubricant was applied to the glass surface, and the minimum force necessary to keep the cell sealed was applied.
(§3) The receptor compartment contained 4 ml of 25 mM HEPES buffer (pH 7.4) added with 0.9% NaCl, kept at 37 °C, and magnetically stirred. […] At predetermined time intervals, the receptor solution was sampled for the determination of drug permeated.
(§4) The transscleral flux, i.e., the amount of drug that crosses 1 cm^2 of sclera in 1 h (J, µg/cm^2h) was calculated as the slope of the regression line at the steady-state while the lag time was the intercept of the regression line on the x-axis. The permeability coefficient (P, cm/s) was calculated as J/Cv where Cv represents the concentration of the donor solution.
(§5) Experiments performed with human sclera were replicated three to four times while those performed on porcine sclera were replicated five to seven times. All the experiments were performed using previously frozen tissues, and acetaminophen permeability was tested also through fresh pig sclera.
(§6) Acetaminophen and insulin were analyzed by HPLC with a Perkin-Elmer instrument (Norwalk, CT), which is made of an isocratic pump LC250 an UV detector LC290, and the Perkin Elmer Turbochrom Workstation software.
(§7) Acetaminophen was analyzed using a C18 Novapak® column (150×3.9 mm; Waters, Milford, MA) and a mobile phase composed of 92% (v/v) 10 mM sodium acetate pH 4 and 8% (v/v) acetonitrile, which was pumped at 1 ml/min. The detector was set at 254 nm.
(§8) Insulin was analyzed using a C18 Symmetry300® column (250×4.6 mm; Waters) at 40 °C and a mobile phase composed of 73% (v/v) aqueous phase and 27% (v/v) acetonitrile, which was pumped at 1 ml/min. The aqueous phase contained anhydrous sodium sulfate 28.4 g/l and phosphoric acid 2.7 ml/l and was adjusted at pH 2.3 with ethanolamine. The detector was set at 214 nm.
(§9) The excitation and emission λ were 490 and 520 nm, respectively.

[3] = Affinity of insulin for scleral tissue: partition coefficient, human sclera / aqueous solution; format: in vitro ADME; conditions: insulin about 100 µg/ml in HEPES pH 7.4 with EDTA and lysine, 0.4 ml on 50-100 mg tissue, 3 h, room temperature, HPLC, mean±SEM, n at least 6
Experimental: (§10) Affinity of insulin for scleral tissue was estimated by measuring its partition coefficient between human or porcine sclera and an aqueous solution at pH 7.4. Insulin was dissolved in the aqueous vehicle that was used as donor for the permeation experiments at a concentration of about 100 µg/ml. This solution (0.4 ml) was added to a previously weighed amount of human or porcine sclera (50–100 mg) in a 2.0 ml vial. The insulin solution and the scleral tissues were incubated at room temperature for 3 h. The solution was then filtered (regenerated cellulose, 0.45 µm pore size) and analyzed by HPLC for the determination of the final insulin concentration in the water phase [Wf]. The insulin concentration [S] in the sclera after the incubation period was calculated as:
(§11) [S]=[Wi] x VW - [Wf] x VW/VS
(§12) where [Wi] is the initial concentration of insulin in the aqueous phase, [Wf] is the concentration of insulin in the aqueous phase after the incubation period, VW is the volume of the aqueous phase (0.4 ml), and VS is the volume of the sclera, which was estimated by its weight and by considering the scleral density to be equal to 1 g/ml.
(§13) The partition coefficient (Ks/w) was then calculated as: […]
(§14) Each experiment was replicated at least six times.

[4] = remark: listed apart in the source
Experimental: Porcine globes were obtained from pigs (Large White, Landrance, Duroc; 10–11 months) that ranged in weight 145–190 kg and came from a local slaughterhouse. Porcine eyes were either used within 24 h of explantation or frozen at −80 °C until use. After thawing, the adherent muscle tissue was removed from the eye bulb, and the anterior segment of the eye was circumferentially cut behind the limbus. The eye was then cut into two halves, the vitreous was removed, and the anterior sclera was used for permeation experiments after the removal of the underling tissues using a cotton swab. The frozen tissues were used within three months of explantation.
as §1, §2, §3, §4, §5, §6, §7, §8, §9

[5] = no reference given; cited from earlier work
Experimental: The permeability was evaluated using three model compounds. […] Insulin has been chosen as a model protein. It has a molecular weight of 5,734 Da, a molecular radius of the monomeric form of 1.13 nm or 2.0 nm, and an isoelectric point of about 5.4. […] Permeation experiment ...

[6] = Affinity of insulin for scleral tissue: partition coefficient, porcine sclera / aqueous solution; format: in vitro ADME, pig; conditions: insulin about 100 µg/ml in HEPES pH 7.4 with EDTA and lysine, 0.4 ml on 50-100 mg tissue, 3 h, room temperature, HPLC, mean±SEM, n at least 6
Experimental: as §10, §11, §12, §13, §14

[7] = cited from earlier work; remark: listed apart in the source
[8] = cited from earlier work; remark: listed apart in the source
[9] = cited from earlier work; remark: listed apart in the source
[10] = neutral molecules of different lipophilicity, rhodamine 6G electrically charged at the pH of the experiment

CC/N=c1\cc2oc3cc(NCC)c(C)cc3c(-c3ccccc3C(=O)OCC)c-2cc1C [rhodamine 6G]
Partition coefficient sclera (literature) [1, 10]: high affinity

Insulin from bovine pancreas [listing 1 of 2 here]
Flux ([2]; human sclera, previously frozen, Franz-type cell 0.2 cm^2, donor 4.9 mg/ml acetaminophen, 1 mg/ml FD-150 or 1 mg/ml insulin in 25 mM HEPES pH 7.4, receptor HEPES pH 7.4 + 0.9% NaCl (0.3% BSA for insulin), 37 °C, slope at steady state, HPLC-UV (FD-150 fluorescence), mean±SEM, n = 3-4, SEM): 6.93±1.14 µg/cm^2h | P (permeability coefficient) ([2]; human sclera, previously frozen, Franz-type cell 0.2 cm^2, donor pH 7.4 HEPES, 37 °C, P = J/Cv, mean±SEM, n = 3-4): 1.93±0.32 cm/s x10^−6 | Lag-time ([2]; human sclera, previously frozen, intercept of the regression line on the x-axis, donor pH 7.4, 37 °C, mean±SEM, n = 3-4, SEM): 71 ± 6 min | DK (diffusion coefficient x partition coefficient) ([2]; human sclera, from P = DK/H with H = tissue thickness (0.59 mm), mean±SEM, SEM): 0.11±0.02 cm^2/s x10^−6 | Flux through human sclera relative to pig sclera ([2]; ratio human / pig sclera flux): 2 times | Partition coefficient (Ks/w) between sclera and donor solution [3]: 10.3±1.2 | Flux ([4]; porcine sclera, previously frozen, Franz-type cell 0.6 cm^2, donor 4.9 mg/ml acetaminophen, 1 mg/ml FD-150 or 1 mg/ml insulin in 25 mM HEPES pH 7.4, receptor HEPES pH 7.4 + 0.9% NaCl (0.3% BSA for insulin), 37 °C, slope at steady state, HPLC-UV (FD-150 fluorescence), mean±SEM, n = 5-7, SEM): 3.74±2.10 µg/cm^2h | Lag-time ([4]; porcine sclera, previously frozen, intercept of the regression line on the x-axis, donor pH 7.4, 37 °C, mean±SEM, n = 5-7, SEM): 198 ± 23 min | DK (diffusion coefficient x partition coefficient) ([4]; porcine sclera, from P = DK/H with H = tissue thickness (1.25 mm), mean±SEM, SEM): 0.11±0.05 cm^2/s x10^−6 | isoelectric point [5]: about 5.4 | Partition coefficient (Ks/w) between sclera and donor solution [6]: 7.0±1.1

OC[C@H]1O[C@@](CO)(O[C@H]2O[C@H](CO)[C@@H](O)[C@H](O)[C@H]2O)[C@@H](O)[C@@H]1O [sucrose]
Partition coefficient sclera (literature) [1]: 0.6

CC(=O)Nc1ccc(O)cc1 [Acetaminophen, acetaminophen]
Molecular radius [7]: 0.36 nm | Flux through human sclera relative to pig sclera [2]: 2 times | DK (diffusion coefficient x partition coefficient) ([2]; SEM): 2.05±0.18 cm^2/s x10^−6 | Lag-time ([2]; pH 7.4): no lag time was detectable | P (permeability coefficient) ([2]; pH 7.4): 34.9±3.0 cm/s x10^−6 | Permeability coefficient across human sclera ([2]; pH 7.4): 3.49 [±0.3] x10^-5 cm/s | DK (diffusion coefficient x partition coefficient) ([4]; SEM): 1.95±0.26 cm^2/s x10^−6 | Effect of freezing on tissue permeability (fresh vs previously frozen porcine sclera) ([4]; pH 7.4): did not have any effect on tissue permeability | P (permeability coefficient) ([4]; pH 7.4): 15.6±2.1 cm/s x10^−6 | Lag-time ([4]; pH 7.4, SEM): 35 ± 2 min

Cc1ccc(-c2cc(C(F)(F)F)nn2-c2ccc(S(N)(=O)=O)cc2)cc1 [celecoxib]
Partition coefficient sclera (literature) [1, 10]: 1.4

OC[C@@H](O)[C@@H](O)[C@H](O)[C@H](O)CO [mannitol]
Partition coefficient sclera (literature) [1, 10]: 0.005

CCCC1O[C@@H]2C[C@H]3[C@@H]4CCC5=CC(=O)C=C[C@]5(C)[C@H]4[C@@H](O)C[C@]3(C)[C@]2(C(=O)CO)O1 (stereo partly shown) [budesonide]
Partition coefficient sclera (literature) [1, 10]: 1.2

Insulin from bovine pancreas [listing 2 of 2 here]
Molecular radius of the monomeric form [8]: 1.13 nm | Molecular radius (dimers/hexamers in solution) [9]: 2.5 nm
